Experimental data reported in US20250213558A1, “T-TYPE CALCIUM CHANNEL MODULATORS COMPRISING A PIPERAZINE OR 1,4-DIAZEPANE CORE AND METHODS OF USE THEREOF” (Praxis Precision Medicines, Inc., priority 2022, published 2025).
Read-outs that look alike come from different tables or passages of the source.

Target: T1, Human Cav3.1 calcium channel (Homo sapiens, UniProt O43497)
T1 construct: expressed in transfected cells; host or cells: HEK-293 natClytin/TASK1+Cav3.1 cell line
Experiment: Human Cav3.1 calcium channel patch clamp assay (SyncroPatch 384PE; single point and IC50, voltage dependent block)
Assay type: cell-based
Details: for % Inhibition (Single Point Data): Testing Conc 1.25, patch clamp
Procedure: Certain compounds (as indicated) were tested for Human Cav3.1 calcium channel activity via a patch clamp assay as disclosed herein.
Pulse generation and data collection were performed with PatchController384 V1.3.0 and DataController384 V1.2.1 (Nanion Technologies). Offline analysis was performed using Excel and Graphpad Prism (V 8.4.2) with complete data files uploaded to Dotmatics. The access resistance and apparent membrane capacitance were estimated using built-in protocols. Current was recorded in whole cell configuration from a population of cells. The cells were lifted, triturated, and resuspended at 800,000 cells/ml. The cells were allowed to recover in the cell hotel prior to experimentation. Currents were recorded at room temperature. The external solution contained the following (in mM): NaCl 80, NMDG 60, KCl 4, MgCl2 1, CaCl2 6, glucose 5 and HEPES 10 (pH=7.4, Osmolarity˜300 mOsm). The extracellular solution was used as the wash, reference and compound delivery solution.
The compound plate was created at 2× concentrated in the extracellular solution. The compound was diluted to 1:2 when added to the recording well. The amount of DMSO in the extracellular solution was held constant at the level used for the highest tested concentration. For the voltage clamp experiments on Cav3.1, data were sampled at 10 KHz. After establishment of the seal and the passage in the whole cell configuration, the cells were held at −120 mV. Cav3.1 current was evoked using a 100 ms step to −20 mV (to measure resting state block), followed by a 1600 ms step to −65 mV and a second 100 ms step to −20 mV (to measure voltage dependent block). The voltage protocol was applied every 15 seconds in the absence and in the presence of the compounds under investigation. […] Current amplitude (pA) was measured in the peak 1 and 2. The average of last 3 sweeps of each liquid period (vehicle, compound under investigation, full block) was calculated. Nickel-sensitive current was used to calculate the % of inhibition in the presence of the compound under investigation.

[1] = HEK-293 natClytin/TASK1+Cav3.1 cell line
[2] = voltage dependent block (VDB), HEK-293 natClytin/TASK1+Cav3.1 cell line, read-out: Cav3.1 IC50

T1 sequence (O43497 whole entry): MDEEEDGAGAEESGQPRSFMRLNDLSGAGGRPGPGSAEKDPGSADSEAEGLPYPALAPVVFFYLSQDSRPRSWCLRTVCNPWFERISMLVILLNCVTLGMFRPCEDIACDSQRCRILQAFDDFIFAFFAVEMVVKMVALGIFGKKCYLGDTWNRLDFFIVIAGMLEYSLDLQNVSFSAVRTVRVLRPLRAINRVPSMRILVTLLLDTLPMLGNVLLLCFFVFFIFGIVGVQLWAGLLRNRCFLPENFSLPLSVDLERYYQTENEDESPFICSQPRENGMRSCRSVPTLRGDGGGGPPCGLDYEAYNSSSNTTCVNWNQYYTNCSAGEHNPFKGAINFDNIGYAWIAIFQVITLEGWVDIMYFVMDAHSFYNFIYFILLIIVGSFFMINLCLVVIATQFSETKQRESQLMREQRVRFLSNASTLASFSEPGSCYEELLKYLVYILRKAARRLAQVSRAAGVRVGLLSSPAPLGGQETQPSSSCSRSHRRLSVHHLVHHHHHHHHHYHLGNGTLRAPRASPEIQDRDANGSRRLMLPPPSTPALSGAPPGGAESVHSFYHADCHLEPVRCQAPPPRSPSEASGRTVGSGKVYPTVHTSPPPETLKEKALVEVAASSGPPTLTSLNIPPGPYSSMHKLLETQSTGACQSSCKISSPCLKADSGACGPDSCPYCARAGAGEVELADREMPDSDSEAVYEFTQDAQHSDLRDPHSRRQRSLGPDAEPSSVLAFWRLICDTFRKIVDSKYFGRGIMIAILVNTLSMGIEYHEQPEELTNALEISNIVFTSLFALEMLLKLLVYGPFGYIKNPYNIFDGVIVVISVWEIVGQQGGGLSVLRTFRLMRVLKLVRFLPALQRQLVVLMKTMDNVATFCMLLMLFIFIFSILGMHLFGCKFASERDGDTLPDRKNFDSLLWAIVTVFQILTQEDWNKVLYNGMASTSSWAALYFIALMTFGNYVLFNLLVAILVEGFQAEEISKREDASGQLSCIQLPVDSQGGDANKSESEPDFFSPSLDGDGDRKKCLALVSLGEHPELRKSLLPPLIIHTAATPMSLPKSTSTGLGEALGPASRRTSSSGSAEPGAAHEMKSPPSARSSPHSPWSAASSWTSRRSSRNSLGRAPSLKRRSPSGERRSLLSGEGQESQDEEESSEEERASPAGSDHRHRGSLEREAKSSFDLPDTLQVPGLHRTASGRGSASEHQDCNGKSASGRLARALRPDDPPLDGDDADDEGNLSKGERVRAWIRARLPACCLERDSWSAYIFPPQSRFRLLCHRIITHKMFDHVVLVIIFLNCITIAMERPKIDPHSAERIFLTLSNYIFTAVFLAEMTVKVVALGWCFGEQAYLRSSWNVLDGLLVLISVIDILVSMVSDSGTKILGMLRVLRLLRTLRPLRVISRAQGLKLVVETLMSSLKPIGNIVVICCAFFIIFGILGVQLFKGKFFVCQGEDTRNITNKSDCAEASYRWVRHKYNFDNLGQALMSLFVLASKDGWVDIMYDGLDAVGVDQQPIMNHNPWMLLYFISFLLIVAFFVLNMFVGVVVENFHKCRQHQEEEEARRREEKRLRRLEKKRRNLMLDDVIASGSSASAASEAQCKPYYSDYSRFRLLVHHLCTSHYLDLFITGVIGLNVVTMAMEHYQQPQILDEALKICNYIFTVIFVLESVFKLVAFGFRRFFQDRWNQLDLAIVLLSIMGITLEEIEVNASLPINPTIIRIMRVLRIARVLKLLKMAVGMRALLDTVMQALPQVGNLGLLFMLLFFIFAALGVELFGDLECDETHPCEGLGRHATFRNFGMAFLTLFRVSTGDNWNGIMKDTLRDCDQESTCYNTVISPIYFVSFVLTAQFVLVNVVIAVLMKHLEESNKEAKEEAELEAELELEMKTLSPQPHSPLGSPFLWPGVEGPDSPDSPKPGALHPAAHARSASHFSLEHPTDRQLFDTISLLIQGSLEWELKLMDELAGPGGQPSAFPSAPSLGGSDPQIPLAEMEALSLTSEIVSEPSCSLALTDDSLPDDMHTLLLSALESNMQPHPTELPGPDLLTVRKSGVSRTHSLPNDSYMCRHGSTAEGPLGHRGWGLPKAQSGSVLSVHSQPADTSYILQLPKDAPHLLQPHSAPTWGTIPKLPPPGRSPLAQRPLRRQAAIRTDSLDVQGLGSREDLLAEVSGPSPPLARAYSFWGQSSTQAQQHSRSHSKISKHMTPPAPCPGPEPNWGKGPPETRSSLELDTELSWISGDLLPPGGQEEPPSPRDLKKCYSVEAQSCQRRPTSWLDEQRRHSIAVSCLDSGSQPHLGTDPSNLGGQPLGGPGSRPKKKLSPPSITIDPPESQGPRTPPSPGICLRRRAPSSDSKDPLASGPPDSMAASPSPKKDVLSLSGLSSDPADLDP

| Compound | % Inhibition (Single Point Data) [1] [%] | IC50 [2] [nM] | IC50 [nM] |
| --- | --- | --- | --- |
| O=C(CN1C2CCC1CN(Cc1nc3c(Cl)cc(F)cc3[nH]1)C2)N1CCCCC1 [Compound 78] | 97.937 |  |  |
| CC(C)(CO)NC(=O)CN1C2CCC1CN(Cc1nc3c(Cl)cc(F)cc3[nH]1)C2 [Compound 79] | 100 |  |  |
| COCC(C)(C)NC(=O)CN1C2CCC1CN(Cc1nc3c(Cl)cc(F)cc3[nH]1)C2 [Compound 80] | 96.659 |  |  |
| O=C(CN1C2CCC1CN(Cc1nc3c(Cl)cc(F)cc3[nH]1)C2)N1CCC(F)(F)CC1 [Compound 81] | 100.06 |  |  |
| CC1(NC(=O)CN2C3CCC2CN(Cc2nc4c(Cl)cc(F)cc4[nH]2)C3)COC1 [Compound 82] | 98.209 |  |  |
| O=C(CN1C2CCC1CN(Cc1nc3c(Cl)cc(F)cc3[nH]1)C2)N1CCOCC1 [Compound 83] | 84.836 | 441 |  |
| Fc1cc(Cl)c2nc(CN3CC4CCC(C3)N4CCC3CCCC3)[nH]c2c1 [Compound 84] | 101 |  |  |
| COC(=O)C(C)(C)N(C)C(=O)CN1C2CCC1CN(Cc1nc3c(Cl)cc(F)cc3[nH]1)C2 [Compound 85] | 66.404 | 375 |  |
| CC1(C)CCN1C(=O)CN1C2CCC1CN(Cc1nc3c(Cl)cc(F)cc3[nH]1)C2 [Compound 86] | 103.03 | 150 |  |
| CN(C(=O)CN1C2CCC1CN(Cc1nc3c(Cl)cc(F)cc3[nH]1)C2)C(C)(C)C(=O)O [Compound 87] | 7.971 |  |  |
| O=C(CN1C2CCC1CN(Cc1nc3c(Cl)cc(F)cc3[nH]1)C2)N1CCC(O)CC1 [Compound 88] | 61.278 |  |  |
| COC1(CCN2C3CCC2CN(Cc2nc4c(Cl)cc(F)cc4[nH]2)C3)CCCC1 [Compound 89] | 98.148 |  |  |
| Fc1cc(Cl)c2nc(CN3CC4CCC(C3)N4CCN3CCC(F)(F)CC3)[nH]c2c1 [Compound 90] | 99.043 |  |  |
| CC1(C)CN(C(=O)CN2C3CCC2CN(Cc2nc4c(Cl)cc(F)cc4[nH]2)C3)C1 [Compound 91] | 97.882 |  |  |
| OC1(CCN2C3CCC2CN(Cc2nc4c(Cl)cc(F)cc4[nH]2)C3)CCCC1 [Compound 92] | 98.505 | 175 |  |
| CC1(C)CCN(C(=O)CN2C3CCC2CN(Cc2nc4c(Cl)cc(F)cc4[nH]2)C3)C1 [Compound 93] | 93.884 | 284 |  |
| CC1(C)CCN1C(=O)CN1C2CC1CN(Cc1nc3c(Cl)cc(F)cc3[nH]1)C2 [Compound 94] | 89.896 | 249 |  |
| Fc1cc(Cl)c2nc(CN3CC4CCC(C3)N4CCOC3CCCCC3)[nH]c2c1 [Compound 95] | 100.41 |  |  |
| CC1(C)CC(CN2C3CCC2CN(Cc2nc4c(Cl)cc(F)cc4[nH]2)C3)CCO1 (stereo not shown) [Compound 96] | 93.367 | 205 |  |

| Compound | % Inhibition (Single Point Data) [1] [%] | IC50 [2] [nM] | IC50 [nM] |
| --- | --- | --- | --- |
| O=C1CCCCN1CCN1C2CCC1CN(Cc1nc3c(Cl)cc(F)cc3[nH]1)C2 [Compound 97] | 79.865 | 367 |  |
| Fc1cc(Cl)c2nc(CN3CC4CC(C3)N4CC3CCC(F)(F)CC3)[nH]c2c1 [Compound 98] | 92.211 | 231 |  |
| CN(C(=O)CN1C2CC1CN(Cc1nc3c(Cl)cc(F)cc3[nH]1)C2)C1(C)CCC1 [Compound 100] | 88.827 |  |  |
| CN(C(=O)CN1C2CC1CN(Cc1nc3c(Cl)cc(F)cc3[nH]1)C2)C(C)(C)C [Compound 101] | 96.57 |  |  |
| Cc1ccc2ccnc(NCC3CCN(CC(=O)NC(C)(C)C)CC3)c2n1 [Compound 102] | 25.803 | 4430 |  |
| CC1(C)CCCC(=O)N1CCN1C2CC1CN(Cc1nc3c(Cl)cc(F)cc3[nH]1)C2 [Compound 103] | 96.655 | 109 |  |
| Fc1cc(Cl)c2nc(CN3CC4CC(C3)N4CCC3CCC(F)(F)CC3)[nH]c2c1 [Compound 104] | 99.877 |  | < 78.2 |
| CC1(CCN2C3CC2CN(Cc2nc4c(Cl)cc(F)cc4[nH]2)C3)CCOCC1 [Compound 105] | 73.309 |  |  |
| CC1(CN2C3CC2CN(Cc2nc4c(Cl)cc(F)cc4[nH]2)C3)CCOCC1 [Compound 106] | 52.218 | 1110 |  |
| CC(C)(C)CCCN1C2CC1CN(Cc1nc3c(Cl)cc(F)cc3[nH]1)C2 [Compound 107] | 101.43 |  | < 78.2 |
| OC1(CCN2C3CC2CN(Cc2nc4c(Cl)cc(F)cc4[nH]2)C3)CCCC1 [Compound 108] | 79.783 | 338 |  |
| CC1(CCN2C3CC2CN(Cc2nc4c(Cl)cc(F)cc4[nH]2)C3)CCC1 [Compound 109] | 98.531 |  |  |
| CN(C(=O)CN1C2CC1CN(Cc1nc3c(Cl)cc(F)cc3[nH]1)C2)C1CCCC1 [Compound 110] | 91.767 |  | < 78.2 |
| CC(C)(C)NC(=O)CN1C2CC1CN(Cc1nc3c(Cl)cc(N)cc3o1)C2 [Compound 111] | 35.454 |  |  |
| CC1(C)CC(CN2C3CC2CN(Cc2nc4c(Cl)cc(F)cc4[nH]2)C3)CCO1 (stereo not shown) [Compound 112] | 82.988 |  |  |
| Fc1cc(Cl)c2nc(CN3CC4CC(C3)N4CCC3(F)CCCC3)[nH]c2c1 [Compound 113] | 94.677 |  |  |
| CC(C)(C)NC(=O)CN1C2CC1CN(Cc1nc3c(C#N)cc(F)cc3[nH]1)C2 [Compound 114] | 95.181 |  | < 78.2 |
| CC(C)(C)NC(=O)CN1C2CC1CN(Cc1nc3c(Cl)cc(F)cc3o1)C2 [Compound 115] |  | 4360 |  |
| CC(C)(C)CC(=O)N1C2CC1CN(Cc1nc3c(Cl)cc(F)cc3[nH]1)C2 [Compound 116] |  | 2460 |  |

| Compound | % Inhibition (Single Point Data) [1] [%] | IC50 [2] [nM] | IC50 [nM] |
| --- | --- | --- | --- |
| Fc1cc(Cl)c2nc(CN3CC4CC(C3)N4CC3CCOCC3)[nH]c2c1 [Compound 117] | 40.989 | 1360 |  |
| C[C@H](c1nc2c(Cl)cc(F)cc2[nH]1)N1CC2CCC(C1)N2CC(=O)NC(C)(C)C [Compound 118] | 102.64 |  |  |
| C[C@@H](c1nc2c(Cl)cc(F)cc2[nH]1)N1CC2CCC(C1)N2CC(=O)NC(C)(C)C [Compound 119] | 95.894 |  |  |
| O=C1CCCCN1CCN1C2CC1CN(Cc1nc3c(Cl)cc(F)cc3[nH]1)C2 [Compound 120] | 81.802 |  |  |
| CC1(C(=O)NCCN2C3CC2CN(Cc2nc4c(Cl)cc(F)cc4[nH]2)C3)CC1 [Compound 121] | 96.032 | 254 |  |
| CC(C)(C)NC(=O)CN1C2CC1CN(Cc1nc3c(C(F)(F)F)cccc3[nH]1)C2 [Compound 122] | 80.218 | 224 |  |
| CC(C)(C)NC(=O)CN1CCC(CNc2nccc3c(F)cc(Cl)cc23)CC1 [Compound 123] | 96.398 | 243 |  |
| CC(C)(C)NC(=O)CN1CCC(CNc2nccc3c(Cl)cc(F)cc23)CC1 [Compound 124] | 67.808 | 645 |  |
| CC(C)(NC(=O)CN1CC2CC1CN2Cc1nc2c(Cl)cc(F)cc2[nH]1)C(F)(F)F (stereo not shown) [Compound 125] | 95.552 | 156 |  |
| CC(C)(C)NC(=O)CN1CC2CC1CN2Cc1nc2c(Cl)cc(F)cc2[nH]1 (stereo not shown) [Compound 126] | 94.215 |  |  |
| CC(C)(NC(=O)CN1CC2CC(C1)N2Cc1nc2c(Cl)ccc(F)c2[nH]1)C(F)(F)F [Compound 127] | 52.415 | 992 |  |
| CN(C(=O)CN1C2CC1CN(Cc1nc3c(Cl)cc(F)cc3[nH]1)C2)C(C)(C)CO [Compound 128] | 18.511 |  |  |
| CC(C)(NC(=O)CN1C2CC1CN(CC(=O)Nc1cc(F)cc(Cl)c1)C2)C(F)(F)F [Compound 129] | 89.48 | 222 |  |
| CC(C)(C)NC(=O)CN1CC2CC1CN2CC(=O)Nc1cc(F)cc(Cl)c1 (stereo not shown) [Compound 130] | 92.618 | 121 |  |
| CC(C)(C)NC(=O)CN1CC2CC1CN2CC(=O)Nc1cccc(Cl)c1 (stereo not shown) [Compound 131] | 83.36 | 2380 |  |
| O[C@H]1CC[C@@H](OCCN2C3CC2CN(Cc2nc4c(Cl)cc(F)cc4[nH]2)C3)CC1 [Compound 132] | 6.2687 | 5900 |  |
| O[C@H]1CC[C@H](OCCN2C3CC2CN(Cc2nc4c(Cl)cc(F)cc4[nH]2)C3)CC1 [Compound 133] | 72.888 | 553 |  |
| CC(C)(C)C(=O)NCCN1C2CC1CN(Cc1nc3c(Cl)cc(F)cc3[nH]1)C2 [Compound 134] | 94.728 |  |  |
